Measurements from paper PMC2615640 (Chemical research in toxicology, 2008).
“Also recorded” adds a separate entry of the source. Marks after values point to notes of the source that are not given here.

What was measured:
[1] = Crystal violet cytotoxicity assay; format: cell-based; details: mouse, Hepa1c1c7 murine hepatoma cells
[2] = tested on: NAD(P)H:quinone oxidoreductase 1 (NQO1); test: In vitro NQO1 induction assay in Hepa-1c1c7 cells; details: Hepa1c1c7 cells; for NQO1 assay CD ± SD (concentration required for two-fold induction of NQO1): pure compounds, 48 h
[3] = DPPH assay; format: biochemical; details: for DPPH % FRS ± SD: pure compounds at screening concentration of 100 μM
[4] = tested on: NAD(P)H:quinone oxidoreductase 1 (NQO1); details: cited from earlier work
[5] = LC-MS-MS analysis of GSH conjugates; details: 1 mM GSH, pH 8.0, 1 h, room temperature
[6] = dry state, 24 h at room temperature, from 98.6% freshly isolated; cited from earlier work
[7] = tested on: antioxidant response element (ARE); test: ARE-luciferase activity assay in HepG2-ARE-C8 cells; format: cell-based; details: 24 h treatment
[8] = p.o. dose 500 mg/kg, rats; cited from earlier work

Structure (SMILES)	NQO1 inducing activity (in words) [2]	NQO1 assay CD ± SD (concentration required for two-fold induction of NQO1) [2]	DPPH % FRS ± SD [3]	further results
CCC/C=C1\OC(=O)c2ccccc21 [Compound 2, Z-butylidenephthalide]	did not induce NQO1 activity	> 20 µM	< 50%	IC50 at 48 h [1]: > 20 µM
CCC/C=C1\OC(=O)C2=C1CC[C@@H](O)[C@@H]2O [Compound 3, senkyunolide I]	weak NQO1 inducing properties	17.9 ± 0.6 µM	< 50%	–
COc1cc(/C=C/C(=O)OCCc2ccc(O)cc2)ccc1O [Compound 7, p-hydroxyphenethyl trans-ferulate]	respectable NQO1 inducing activities; also recorded: high NQO1 inducing properties	2.4 ± 0.3 ^f μM	65 ± 1%	radical scavenging activity (in words) ([3]; DPPH): moderate radical scavenging activity
CCC/C=C1\OC(=O)C23C=CCCC12C1(OC(=O)c2ccccc21)C3CCC (stereo not shown) [Compound 5, sinaspirolide]	did not show any NQO1 inducing activity	> 20 µM	< 50%	–
C[S+]([O-])CCCCN=C=S (stereo not shown) [sulforaphane]	–	–	–	CI (chemopreventive index) [4]: 26
CCC/C=C1\OC(=O)C2=C1CCC=C2 [Compound 1, Z-ligustilide]	respectable NQO1 inducing activities	–	< 50%	covalent modification of GSH / GSH conjugate formation [5]: covalently modified GSH; also recorded: formed GSH conjugates; purity (GC-MS) after degradation [6]: 58.1%; IC50 at 48 h [1]: 71.2 ± 4.1 µM; ARE-luciferase reporter activity [7]: increased ARE-luciferase reporter activity in a dose-dependent manner; also recorded: induced ARE reporter luciferase activity in a dose-dependent manner; GSH conjugate in plasma [8]: a GSH conjugate with monooxygenated ligustilide (mass 206) could be detected in the plasma
COc1cc(/C=C/C(=O)OCC(O)C(OC)c2ccc(O)c(OC)c2)ccc1O (stereo not shown) [Compound 6, angeliferulate]	respectable NQO1 inducing activities; also recorded: high NQO1 inducing properties	7.5 ± 0.2 µM	–	–
CCC/C=C1\OC(=O)C2=CC3CCC21[C@]1(OC(=O)c2ccccc21)[C@@H]3CCC (stereo partly shown) [Compound 4, ansaspirolide]	potent inducing properties	0.9 ± 0.1 µM	< 50%	CI (Chemopreventive Index: IC50/CD) [2]: 3
